Measurements as given in patent US10280171B2, “Heterocyclic inhibitors of PTPN11” (priority 2016, dated 2019).
Structures can show the parent of a compound that is named as a salt. Where two headings read alike, the source gives them in different places.

Columns and labels:
[1] = test system: Phospho-ERK levels in KYSE-520 cells; assay: pERK AlphaScreen Protocol; type: cell-based; settings: Homo sapiens, KYSE-520, 2 h, read-out: PERK Avg IC50
Description: KYSE-520 cells (10 k cells/well) were grown in 384-well plate in 20 uL of medium (RPMI-1640, without phenol red, containing 10% FBS) at 37° C. with 5% CO2 overnight. DMSO (control) or increasing concentrations of compounds were diluted in medium, added to the 384-well plate (5 uL/well, final DMSO concentration of 1%), and cells were then incubated with compounds for 2 hr. Phospho-ERK levels were measured using phospho-ERK1/2 AlphaScreen SureFire (PerkinElmer, TGRESB10K) following manufacturer's recommendations. Dose-response curves were analyzed using IC50 regression curve fitting (GeneData Screener). Curves were normalized to a high control without inhibitor (DMSO only), and low control (1 μM selumetinib).

[2] = biological target: PTPN11-E76K mutant enzyme (Homo sapiens (Human), UniProt Q06124, E76K); assay: PTPN11 Enzymatic Assay (DiFMUP phosphatase activity); type: biochemical; settings: DiFMUP 50 μM, 30 min preincubation
Sequence of PTPN11-E76K mutant enzyme (Q06124 whole entry E76K): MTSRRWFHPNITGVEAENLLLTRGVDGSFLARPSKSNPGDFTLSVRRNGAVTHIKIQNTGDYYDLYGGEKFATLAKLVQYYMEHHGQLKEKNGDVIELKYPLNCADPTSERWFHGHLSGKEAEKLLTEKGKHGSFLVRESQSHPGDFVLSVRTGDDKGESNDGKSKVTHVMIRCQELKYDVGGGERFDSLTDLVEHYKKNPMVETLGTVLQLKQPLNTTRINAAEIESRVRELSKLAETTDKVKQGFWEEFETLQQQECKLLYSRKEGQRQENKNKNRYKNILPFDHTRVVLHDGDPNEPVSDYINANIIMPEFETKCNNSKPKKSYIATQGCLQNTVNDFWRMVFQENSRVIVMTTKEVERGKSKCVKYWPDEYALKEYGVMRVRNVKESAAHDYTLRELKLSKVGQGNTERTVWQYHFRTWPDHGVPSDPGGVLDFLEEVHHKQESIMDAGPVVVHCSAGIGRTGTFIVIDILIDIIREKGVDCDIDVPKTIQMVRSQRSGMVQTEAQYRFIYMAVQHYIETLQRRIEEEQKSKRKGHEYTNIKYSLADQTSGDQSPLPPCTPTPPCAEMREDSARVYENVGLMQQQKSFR
Description: Reaction was initiated by addition of DiFMUP (50 μM) at room temperature in 384-well black plate with a final reaction volume of 20 uL in assay buffer. […] Dose-response curves were analyzed using IC50 regression curve fitting (GeneData Screener). Curves were normalized to a high controls without inhibitor, and low controls without enzyme.

[3] = KYSE-520 cells, 2 hr compound incubation, phospho-ERK1/2 AlphaScreen SureFire
[4] = full length PTPN11-E76K mutant enzyme 250 pM, read-out: PTPN11-E76K Avg IC50

SMILES | IC50 [1, 3] [nM] | IC50 [2, 4] [nM] | IC50 ([2]; PTPN11-E76K Avg IC50, full length PTPN11-E76K mutant enzyme 250 pM) [nM] | IC50 [1] [nM]
CC1(CN)CCN(c2cnc3c(-c4cccc(Cl)c4)n[nH]c3n2)CC1 [Example 9, (1-(3-(3-chloro-phenyl)-1H-pyrazolo[3,4-b]-pyrazin-6-yl)-4-methylpiperidin-4-yl)methanamine] | 482 | 367 | – | –
CC(N)C1(C)CCN(c2cnc3c(-c4ccnc(N)c4Cl)n[nH]c3n2)CC1 (single isomer, unassigned) [Example 113a, 4-(6-(4-(1-Aminoethyl)-4-methylpiperidin-1-yl)-1H-pyrazolo[3,4-b]pyrazin-3-yl)-3-chloropyridin-2-amine] | 100 | 180 | – | –
CC1(N)CCN(c2cnc3c(-c4ccnc(N)c4Cl)n[nH]c3n2)CC1 [Example 106, 4-(6-(4-Amino-4-methylpiperidin-1-yl)-1H-pyrazolo[3,4-b]pyrazine-3-yl)-3-chloropyridin-2-amine] | 174 | 253 | – | –
Nc1nccc(-c2n[nH]c3nc(N4CCC5(CC4)COC[C@H]5N)cnc23)c1Cl [Example 116, (S)-8-(3-(2-Amino-3-chloropyridin-4-yl)-1H-pyrazolo[3,4-b]pyrazin-6-yl)-2-oxa-8-azaspiro[4.5]decan-4-amine] | 483 | 132 | – | –
Nc1nccc(-c2n[nH]c3nc(N4CCC(N)(CO)CC4)cnc23)c1Cl [Example 119, (4-Amino-1-(3-(2-amino-3-chloropyridin-4-yl)-1H-pyrazolo[3,4-b]pyrazin-6-yl)-piperidin-4-yl)methanol] | 1730 | 422 | – | –
CC1(CN)CCN(c2cnc3c(-c4cc(N)ncc4Cl)n[nH]c3n2)CC1 [Example 133, 4-{6-[4-(amino-methyl)-4-methyl-piperidin-1-yl]-1H-pyrazolo[3,4-b]-pyrazin-3-yl}-5-chloropyridin-2-amine] | 533 | 840 | – | –
COc1cccc(-c2n[nH]c3nc(N4CCC(C)(CN)CC4)cnc23)c1Cl [Example 27, (1-(3-(2-chloro-3-methoxy phenyl)-1H-pyrazolo[3,4-b]pyrazin-6-yl)-4-methylpiperidin-4-yl) methanamine] | 55 | 80 | – | –
CC1(N)CCN(c2cnc3c(-c4cn[nH]c4C(F)(F)F)n[nH]c3n2)CC1 [Example 101, 4-Methyl-1-(3-(5-(trifluoromethyl)-1H-pyrazol-4-yl)-1H-pyrazolo[3,4-b]pyrazin-6-yl)-piperidin-4-amine] | 638 | 1890 | – | –
Nc1cc(-c2n[nH]c3nc(N4CCC5(CCC[C@H]5N)CC4)cnc23)c(Cl)cn1 [Example 125, (R)-8-(3-(2-amino-5-chloropyridin-4-yl)-1H-pyrazolo[3,4-b]pyrazin-6-yl)-8-azaspiro[4.5]decan-1-amine] | 429 | 509 | – | –
N[C@@H]1COCC12CCN(c1cnc3c(-c4ccnc(O)c4Cl)n[nH]c3n1)CC2 [Example 109, (S)-4-(6-(4-Amino-2-oxa-8-azaspiro[4.5]decan-8-yl)-1H-pyrazolo[3,4-b]pyrazin-3-yl)-3-chloropyridin-2-ol] | 10000 | 1100 | – | –
NC1C(F)(F)CCC12CCN(c1cnc3c(-c4cccc(Cl)c4Cl)n[nH]c3n1)CC2 (single isomer, unassigned; isomer a) [Example 65A, 8-(3-(2,3-Dichlorophenyl)-1H-pyrazolo[3,4-b]pyrazin-6-yl)-2,2-difluoro-8-azaspiro[4.5]decan-1-amine, isomer A] | 93 | – | 235 | –
N[C@@H]1CCCC12CCN(c1cnc3c(-c4cccc(Cl)c4)n[nH]c3n1)CC2 [Example 44, (R)-8-(3-(3-chloro-phenyl)-1H-pyrazolo[3,4-b]-pyrazin-6-yl)-8-aza-spiro[4.5]-decan-1-amine] | 304 | 429 | – | –
N[C@@H]1COCC12CCN(c1cnc3c(-c4c(F)cccc4Cl)n[nH]c3n1)CC2 [Example 40, (4S)-8-(3-(2-Chloro-6-fluorophenyl)-1H-pyrazolo[3,4-b]-pyrazin-6-yl)-2-oxa-8-azaspiro[4.5]-decan-4-amine] | 186 | 203 | – | –
CC1(CN)CCN(c2cnc3c(-c4ccnc(O)c4Cl)n[nH]c3n2)CC1 [Example 118, 4-(6-(4-(Aminomethyl)-4-methylpiperidin-1-yl)-1H-pyrazolo[3,4-b]pyrazin-3-yl)-3-chloropyridin-2-ol] | 8280 | 1130 | – | –
CNc1nccc(-c2n[nH]c3nc(N4CCC5(CCC[C@H]5N)CC4)cnc23)c1Cl [Example 111, (R)-8-(3-(3-Chloro-2-(methylamino)pyridin-4-yl)-1H-pyrazolo[3,4-b]pyrazin-6-yl)-8-azaspiro[4.5]decan-1-amine] | 20 | 43 | – | –
CC1(CN)CCN(c2cnc3c(-c4ccc(Cl)cc4)n[nH]c3n2)CC1 [Example 16] | 309 | 169 | – | –

SMILES | IC50 [1, 3] [nM] | IC50 [2, 4] [nM] | IC50 ([2]; PTPN11-E76K Avg IC50, full length PTPN11-E76K mutant enzyme 250 pM) [nM] | IC50 [1] [nM]
NC1(CO)CCN(c2cnc3c(-c4cccc(Cl)c4Cl)n[nH]c3n2)CC1 [Example 57, (4-Amino-1-(3-(2,3-dichlorophenyl)-1H-pyrazolo[3,4-b]pyrazin-6-yl)piperidin-4-yl)-methanol] | 53 | 104 | – | –
N[C@@H]1CCCC12CCN(c1cnc3c(-c4cn[nH]c4C(F)(F)F)n[nH]c3n1)CC2 [Example 102, (R)-8-(3-(5-(Trifluoromethyl)-1H-pyrazol-4-yl)-1H-pyrazolo[3,4-b]pyrazin-6-yl)-8-azaspiro[4.5]decan-1-amine] | 1180 | 2150 | – | –
CC1(N)CCN(c2cnc3c(-c4cccc(N)c4Cl)n[nH]c3n2)CC1 [Example 105, 1-(3-(3-amino-2-chlorophenyl)-1H-pyrazolo[3,4-b]pyrazin-6-yl)-4-methylpiperidin-4-amine] | 120 | 191 | – | –
N[C@@H]1COCC12CCN(c1cnc3c(-c4cccnc4Cl)n[nH]c3n1)CC2 [Example 41, (S)-8-(3-(2-chloro-pyridin-3-yl)-1H-pyrazolo[3,4-b]-pyrazin-6-yl)-2-oxa-8-azaspiro[4.5]-decan-4-amine trifluoroacetate] | – | 966 | – | 394
CC1(CN)CCN(c2cnc3c(-c4ccc(F)c(Cl)c4)n[nH]c3n2)CC1 [Example 14, (1-(3-(3-Chloro-4-fluorophenyl)-1H-pyrazolo[3,4-b]-pyrazin-6-yl)-4-methylpiperidin-4-yl) methanamine] | 569 | 521 | – | –
Nc1nccc(-c2n[nH]c3nc(N4CCC5(CC4)C[C@H](O)C[C@H]5N)cnc23)c1Cl [Example 126, (2S,4R)-4-Amino-8-(3-(2-amino-3-chloropyridin-4-yl)-1H-pyrazolo[3,4-b]pyrazin-6-yl)-8-azaspiro[4.5]decan-2-ol] | – | 75 | – | –
COc1cccc(-c2n[nH]c3nc(N4CCC5(CCC[C@H]5N)CC4)cnc23)c1Cl [Example 50, (R)-8-(3-(2-chloro-3-methoxyphenyl)-1H-pyrazolo[3,4-b]pyrazin-6-yl)-8-azaspiro[4.5]decan-1-amine] | 34 | 39 | – | –
Nc1cccc(-c2n[nH]c3nc(N4CCC5(CCC[C@H]5N)CC4)cnc23)c1Cl [Example 131, (1R)-8-[3-(3-amino-2-chlorophenyl)-1H-pyrazolo[3,4-b]-pyrazin-6-yl]-8-aza-spiro[4.5]decan-1-amine] | 35 | 84 | – | –
NCC1(O)CCN(c2cnc3c(-c4ccnc(O)c4Cl)n[nH]c3n2)CC1 [Example 120, 4-(6-(4-(Aminomethyl)-4-hydroxypiperidin-1-yl)-1H-pyrazolo[3,4-b]pyrazin-3-yl)-3-chloropyridin-2-ol] | 9700 | 5370 | – | –
CC1(CN)CCN(c2cnc3c(-c4cn[nH]c4C(F)(F)F)n[nH]c3n2)CC1 [Example 103, (4-Methyl-1-(3-(5-(trifluoromethyl)-1H-pyrazol-4-yl)-1H-pyrazolo[3,4-b]-pyrazine-6-yl)piperidin-4-yl)methanamine] | 1630 | 2600 | – | –
Cc1c(Cl)cccc1-c1n[nH]c2nc(N3CCC4(CCC[C@H]4N)CC3)cnc12 [Example 51, (R)-8-(3-(3-chloro-2-methylphenyl)-1H-pyrazolo[3,4-b]pyrazin-6-yl)-8-azaspiro[4.5]decan-1-amine] | – | 153 | – | –
CC1(N)CCN(c2cnc3c(-c4cccc(Cl)c4F)n[nH]c3n2)CC1 [Example 26, 1-(3-(3-chloro-2-fluorophenyl)-1H-pyrazolo[3,4-b]-pyrazin-6-yl)-4-methylpiperidin-4-amine] | – | 213 | – | –
COc1cc(Cl)cc(-c2n[nH]c3nc(N4CCC5(CCC[C@H]5N)CC4)cnc23)c1 [Example 52, (R)-8-(3-(3-chloro-5-methoxyphenyl)-1H-pyrazolo[3,4-b]pyrazin-6-yl)-8-azaspiro[4.5]decan-1-amine] | – | 313 | – | –
COc1cc(-c2n[nH]c3nc(N4CCC5(CCC[C@H]5N)CC4)cnc23)ccc1Cl [Example 34, (R)-8-(3-(4-chloro-3-methoxyphenyl)-1H-pyrazolo[3,4-b]-pyrazin-6-yl)-8-aza-spiro[4.5]decan-1-amine] | – | 102 | – | –
Cc1c(-c2n[nH]c3nc(N4CCC(C)(CN)CC4)cnc23)ccnc1N [Example 124, 4-(6-(4-(Aminomethyl)-4-methylpiperidin-1-yl)-1H-pyrazolo[3,4-b]pyrazin-3-yl)-3-methylpyridin-2-amine] | – | 377 | – | –
